Results as given in US11260096B2, “Compositions for creatine supplementation in creatine non-responders” (ThermoLife International, LLC, priority 2019, dated 2022).
Several values for one entry are separate records, joined by “and”; a condition that tells them apart may be missing. Equal entries are not always repeated. Entries after “also recorded” stand apart in the source; their conditions may differ.

What was measured:
[1] = single-dose pharmacokinetics experiment: serum creatine and creatinine by LC-MS/MS; assay type: in vivo, human; settings: for AUC (serum creatine) after single-dose intervention: linear-log trapezoidal method
Experimental: (§1) Ten healthy young men (age 23.6±2.9 years, body mass index 23.8±1.5 kg/m′) were recruited and signed informed consent to voluntarily participate in this double-blind, crossover, randomized controlled trial. All experimental procedures were approved by the local institutional review board, and the study was conducted in accordance with the Declaration of Helsinki. All participants had no history of creatine supplementation (or other dietary supplements) within the 4 weeks before the study commenced. All participants also had no acute or chronic diseases as evaluated by pre-participation health check and blood profiles. All participants were required to maintain their normal activity patterns and diet during the study. The participants were required to not engaged in any exhaustive exercise 24 hours before the study commenced.
(§2) Washout period of 7 days was employed between all trials to prevent the residual or carry-over effects of treatments across study periods. For the single-dose experiment, participants were administered a liquid composition that was prepared by a researcher by dissolving a powder of their respective treatment compounds in 150 mL of lukewarm water. For the 5-day intervention, the participants received five powder sachets (one per day) containing an treatment compounds. The participants were advised to stir the content of the sachet into 150 mL of lukewarm water until the powder has dissolved and to drink the liquid composition about 30 minutes before breakfast. […] Clinical assessments for both experiments were carried out between 08:00 and 12:00 after an overnight fast of 12 hours. Venous blood samples were drawn at each time point (7 points in total) for a single-dose experiment, and serum analyzed for creatine and creatinine by modified LC-MS/MS (1200 Series LC System; Agilent Technologies Inc., Santa Clara, Calif., USA). To control for variance based on different hydration levels, all participants were restricted from water ingestion between the time of collecting the baseline sample and 120 minutes after administration of the treatment. For 5-day experiment, venous blood samples were drawn at baseline and at the various follow-up times, with serum analyzed for liver enzymes by an automated analyzer (Randox Laboratories Ltd., Crumlin, UK).
Where significant differences were found, the Tukey post-hoc test was employed to identify the differences. The area under the concentration-time curve (AUC) for serum creatine and creatinine were calculated using the linear-log trapezoidal method, with AUCs compared with one-way ANOVA. The significance level was set at P<0.05. Data were analyzed using the SPSS program (SPSS Inc., Chicago, Ill., USA).

[2] = 5-day intervention: liver enzymes and estimated glomerular filtration rate (safety biomarkers); assay type: in vivo, human
Experimental: as §1
as §2, with “Creatinine anhydrous has been produced from creatine monohydrate in an autoclave (Memmert UF 55, Schwabach, Germany) at 160° C.” for “Clinical assessments”, “72 hours, with creatinine purity>99% in a final powder, as determined by NMR spectroscopy (Bruker Avance III 400, Billerica, Mass.). […]” for “both experiments were carried out between 08:00 and 12:00 after an overnight fast of 12 hours.”, “To control for variance based on different hydration levels, all participants were restricted from water ingestion between the time of collecting the baseline sample and 120 minutes after administration of the treatment.” left out
Estimated glomerular filtration rate (eGFR) was calculated by the abbreviated MDRD equation (Stevens et al., Am J Kidney Dis. 2007; 50: 21-35). […] In vivo metabolite concentrations were calculated using the muscle water signal as an internal intensity reference (Wang et al., J Magn Reson. 2014, 243: 81-84). […] The peak integral values of the total creatine (creatine plus phosphocreatine) signal at 3.0 ppm and the non-suppressed water signal at 4.7 ppm were quantified using curve-fitting to Gaussian lines. […]

[3] = 5-day intervention: total muscle creatine by proton magnetic resonance spectroscopy (MRS); assay type: in vivo, human; settings: after five-day intervention vs baseline
Experimental: as §1, with “The participants were required to not engaged in any exhaustive exercise 24 hours before the study commenced.” left out
Washout period of 7 days was employed between all trials to prevent the residual or carry-over effects of treatments across study periods. […] Creatinine anhydrous has been produced from creatine monohydrate in an autoclave (Memmert UF 55, Schwabach, Germany) at 160° C. for 72 hours, with creatinine purity>99% in a final powder, as determined by NMR spectroscopy (Bruker Avance III 400, Billerica, Mass.). […] Venous blood samples were drawn at each time point (7 points in total) for a single-dose experiment, and serum analyzed for creatine and creatinine by modified LC-MS/MS (1200 Series LC System; Agilent Technologies Inc., Santa Clara, Calif., USA). […]

[4] = adverse events evaluated via open-ended questionnaires; assay type: in vivo, human; settings: 5-day intervention, single participants
Experimental: Estimated glomerular filtration rate (eGFR) was calculated by the abbreviated MDRD equation (Stevens et al., Am J Kidney Dis. 2007; 50: 21-35). […] Twelve datasets were obtained for each individual yielding a total of 120 spectra in this study. In vivo metabolite concentrations were calculated using the muscle water signal as an internal intensity reference (Wang et al., J Magn Reson. 2014, 243: 81-84). The spectra were fitted in the time domain using a nonlinear least squares algorithm ([…]) in the Java-based magnetic resonance user interface (jMRUI) software package. […] Finally, possible adverse events of the intervention (e.g. muscle cramps, bloating, diarrhea) were evaluated via open-ended questionnaires administered during the trial.

[5] = cited from earlier work

For CN(CC(=O)O)C(=N)N.O [CRM, creatine monohydrate], the “AUC for serum creatinine” value ([1]; single oral dose) was 607.5 ± 37.7 µmol·min/L, the “change in serum creatinine during the single-dose study (in words)” value ([1]; single oral dose) was “remained essentially unchanged” and the “AUC (serum creatine) after single-dose intervention” value ([1]; single oral dose) was 466.3 ± 47.9 µmol·min/L. The eGFR ([2]; in vivo) was 91.7 ± 8.3 mL/min/1.73 m^2, the “participants with mildly reduced kidney function (eGFR 60-89 mL/min/1.73 m^2)” value ([2]; in vivo) was 30.0% and the “average increase in total muscle creatine levels” value [3] was 2.1%. For the same compound, the “reported side effects / adverse events (in words)” value [4] was “episodes of bloating” and the “increase of total creatine content in skeletal muscles” value ([5]; dosages up to 30 g for a few days, human subject) was “more than 20%”.
For CN(CC(=O)O)C(=N)N.O=[N+]([O-])O [CN, creatine nitrate], the concentration at 60 min ([1]; male, human, in vivo, single oral dose (3 g CN + 3 g creatinine, 3 g CN or 3 g CRM), peak time, n=10 healthy men, read-out: average serum creatine concentration at 60 minutes post-administration) was 164 ± 12.9 µM, the “change in serum creatinine during the single-dose study (in words)” value ([1]; single oral dose) was “remained essentially unchanged” and the “AUC (serum creatine) after single-dose intervention” value ([1]; single oral dose) was 622.7 ± 62.9 µmol·min/L. For the same compound, the “participants with mildly reduced kidney function (eGFR 60-89 mL/min/1.73 m^2)” value ([2]; 5-day intervention, n=10) was 40.0%, the eGFR ([2]; at 5-day follow-up, mean ± SD, abbreviated MDRD equation) was 89.8 ± 8.1 mL/min/1.73 m^2 and the “average increase in total muscle creatine levels” value [3] was 8.0%. For the same compound, the “reported side effects / adverse events (in words)” value ([4]; nitrate) was “irregular non-diarrheal bowel movements; also recorded: excessive sleepiness”.
For CN(CC(=O)O)C(=N)N [creatine], the “individuals who do not respond to creatine supplementation (prevalence of non-responders)” value ([5]; less than 10 mmol/kg dw increase in resting total muscle creatine after five days at 20 g/day) is listed as “about 25% and 20-30%”.
